In BigSolDB 2.1:

Settings: in water

N[C@@H](CCC(=O)N[C@@H](CS)C(=O)NCC(=O)O)C(=O)O
Settings	solubility (mole fraction)
278.15 K	0.00427
283.15 K	0.00519
288.15 K	0.00659
293.15 K	0.00792
298.15 K	0.00936
303.15 K	0.0115
308.15 K	0.0139
313.15 K	0.0169
318.15 K	0.0202
